Results as given in patent publication US20210145768A1, “MODULATING IMMUNE RESPONSE VIA TARGETING OF OLFACTORY RECEPTOR ACTIVITY” (La Jolla Institute for Allergy and Immunology, priority 2018, published 2021).
“And” between values parts separate entries of the source, which are not always exact repeats. Identical values can stand only once.

Experiments:
OR6A2 = target: T1, OR6A2 (Homo sapiens, UniProt O95222); experiment: IL-1β production in LPS-primed human MDMs; assay type: cell-based
T1 construct: OR6A2 protein surface expression in hMDMs was confirmed by flow cytometry; endogenous in cells; host or cells: human monocyte-derived macrophages from healthy donors (rhM-CSF, 7 d)
T1 sequence (O95222 1-327): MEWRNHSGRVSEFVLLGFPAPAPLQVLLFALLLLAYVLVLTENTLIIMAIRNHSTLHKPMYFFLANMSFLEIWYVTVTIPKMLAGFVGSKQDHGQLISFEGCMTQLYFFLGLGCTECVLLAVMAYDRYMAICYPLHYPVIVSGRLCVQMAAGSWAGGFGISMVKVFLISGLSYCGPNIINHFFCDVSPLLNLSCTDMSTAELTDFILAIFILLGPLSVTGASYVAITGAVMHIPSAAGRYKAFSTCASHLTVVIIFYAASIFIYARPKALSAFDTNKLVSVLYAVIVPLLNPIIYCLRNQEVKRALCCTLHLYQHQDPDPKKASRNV
Method: Mouse BMDMs and human MDMs were pretreated with LPS (50 ng/mL) or left untreated for 18 h at 37° C. and 5% CO2. After this period LPS pretreated and untreated cells were further incubated with Oct (10 μM) and Cit (100 μM) alone (LPS+Oct; LPS+Cit; Oct; Cit, respectively) or combined (LPS+Oct+Cit) for further 8 h. Supernatants were collected by centrifugation at 2000 g for 15 minutes at 4° C., collected and frozen at −80° C. until further IL-1β analysis by CBA (BD Biosciences).
(§1) Supernatants of stimulated cells and aortic tissue were analyzed by BD CBA Flex Sets (BD Biosciences) for mouse TNFα, CCL2, CCL4, IL-1β, or human TNF, IL6, and IL-1β according to the manufacturer's protocol. Samples were analyzed with LSR-II (BD Biosciences). Data was acquired with FACSDiva software (BD Biosciences) and analyzed with FCAP array software 3.0 (BD Biosciences).

Olfr2 [1] = target: T2, Olfr2 (Mus musculus, UniProt Q9QWU6); experiment: IL-1β production in LPS-primed mouse BMDMs; assay type: cell-based; set-up: Olfr2 expression was confirmed at the protein level on F4/80^+ vascular macrophages; from tissue; host or cells: explanted whole aortas, digested aortic cell suspensions (F4/80+ vascular macrophages) and blood monocytes of Apoe-/- C57BL/6J mice; living Apoe-/- mice for the in vivo study
T2 sequence (Q9QWU6 1-327): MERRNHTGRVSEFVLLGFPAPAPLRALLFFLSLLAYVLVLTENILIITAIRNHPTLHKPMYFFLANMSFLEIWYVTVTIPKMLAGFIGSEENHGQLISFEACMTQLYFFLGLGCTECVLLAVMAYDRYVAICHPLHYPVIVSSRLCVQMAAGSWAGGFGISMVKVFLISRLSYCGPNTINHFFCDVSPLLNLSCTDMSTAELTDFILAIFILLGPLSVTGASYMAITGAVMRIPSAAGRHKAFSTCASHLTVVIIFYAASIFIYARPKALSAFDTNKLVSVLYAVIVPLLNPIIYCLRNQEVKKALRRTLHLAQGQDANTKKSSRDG
Method: Macrophages are known producers of one of the most prominent cytokines driving atherosclerosis, IL-1β^29. IL-1β production and secretion requires assembly of the inflammasome, a cytoplasmic complex containing several proteins that serves as a molecular platform for activation of the cysteine protease caspase^30,31. To test whether octanal induced IL-1β secretion in macrophages, BMDMs were primed with low-dose LPS (50 ng/mL) for 18 h followed by exposure to octanal alone or together with citral. IL-1β protein in the supernatant was quantified by a cytokine bead array. Data are presented as mean±SEM. *p<0.05, **p<0.01, ***p<0.005, ****p<0.001. p calculated by One-Way ANOVA test, Tukey's multiple comparisons test and unpaired t-test.
Mouse BMDMs and human MDMs were pretreated with LPS (50 ng/mL) or left untreated for 18 h at 37° C. and 5% CO2. […]
as §1

Olfr2 [2] = target: T2, Olfr2; experiment: En face atherosclerosis quantification in Apoe−/− mice fed western diet; assay type: in vivo; set-up: Olfr2 expression was confirmed at the protein level on F4/80^+ vascular macrophages; from tissue; host or cells: explanted whole aortas, digested aortic cell suspensions (F4/80+ vascular macrophages) and blood monocytes of Apoe-/- C57BL/6J mice; living Apoe-/- mice for the in vivo study; settings: for atherosclerosis in mice: summary of in vivo injection experiments
Method: The effect of citral on atherosclerosis in Apoe−/− mice fed a high fat western diet, a widely used model of atherosclerosis, was investigated. Briefly, ApoE^−/− Mice (10 weeks old) were fed WD for 4 weeks before the inhibitor treatment, citral, was started. Citral at 10 mg/kg was diluted in 100 uL of PBS and injected I.P. every 3 days for 4 weeks for a total of 12 injections. During this time, mice continue to eat WD for a total of 8 weeks. […] Thus, blocking Olfr2 is anti-atherosclerotic, showing that Olfr2 contributes to atherosclerosis.
To test a possible impact of Olfr2 on atherosclerosis in vivo, male Apoe^−/− mice were fed WD for 8 weeks and injected octanal (10 μg/g) intraperitoneally for the last 4 weeks every three days for a total of 12 injections. […] Octanal had no effect on total cholesterol, LDL cholesterol, HDL cholesterol or triglycerides (FIG. 11A). Similarly, in a loss-of-function experiment, male Apoe^−/− mice were treated with citral (10 μg/g, 12 injections over 4 weeks), which reduced the size of atherosclerotic lesions by ˜40% (FIGS. 10F and G). Citral treatment like octanal had no effect on other parameters (FIG. 11A).
Male Apoe^−/− mice (9 to 10 wks old) were fed WD for 4 weeks. Oct or Cit were diluted in sterile phosphate buffered saline (PBS) (Gibco) at a final concentration of 10 μg/g. 100 μl were injected intraperitoneally (i.p.) every 3 days for 4 weeks (12 injections total) while maintaining WD administration. PBS+0.1% DMSO (Sigma Aldrich) was injected as a vehicle control following the same protocol. Mice were sacrificed, perfused with PBS implemented with 2% heparin (Fresenius Kabi USA, LLC) and aortas removed for en face atherosclerotic lesion assessment. Mouse whole blood (heart puncture) was collected in EDTA tubes. Leukocyte blood counts were determined with HemaVet 950 (Drew Scientific). Plasma was collected from blood centrifuged at 3000 g for 15 min at 4° C. and stored at −80° C. until further analysis.
After explant, each aorta was pinned out after 4% paraformaldehyde incubation at room temperature for at least 2 hours Staining for atherosclerotic plaque was performed by incubating samples in Sudan IV. Microphotographs of the luminal (endothelial) aspect were of the aortic surface were analyzed using Photoshop CS (Adobe Systems). Atherosclerotic lesion size measurement was performed by blinded investigators using Image-Pro Premier software (Media Cybernetics).

| SMILES | octanal-induced IL-1β in the supernatant, hMDMs (OR6A2; LPS, octanal + citral) | octanal-induced IL-1β release, mouse BMDMs (Olfr2 [1]; LPS priming, octanal 10 μM + citral 100 μM) | reduction of atherosclerotic lesion size (Olfr2 [2]; Apoe−/− mice on WD 8 weeks, citral 10 μg/g i.p. every 3 days, 12 injections over last 4 weeks) | atherosclerotic lesions, % of the aortic area (Olfr2 [2]; Apoe−/− mice on WD, citral 10 mg/kg i.p., 12 injections, untreated ~8%, P<0.02) [%] | atherosclerosis in mice (Olfr2 [2]) | IL-1β in the supernatant, hMDMs (OR6A2; LPS 50 ng/mL 18 h, then octanal) | release of IL-1β into the supernatant, mouse BMDMs (Olfr2 [1]; LPS 50 ng/mL 18 h priming, then octanal 10 μM) | lesion size, en face staining of aortic arches (Olfr2 [2]; Apoe−/− mice on WD 8 weeks, octanal 10 μg/g i.p., 12 injections over last 4 weeks) |
| --- | --- | --- | --- | --- | --- | --- | --- | --- |
| CC(C)=CCCC(C)=CC=O [citral] | partially but significantly inhibited | inhibited | ~50% and ~40% | ~5 | protected mice from atherosclerosis |  |  |  |
| CCCCCCCC=O [octanal] |  |  |  |  | exacerbated atherosclerosis | highly significant increase | strongly increased | more than doubled |
